Patent US6348477B1, “Anti-herpesvirus compounds and methods for identifying, making and using same” (Boehringer Ingelheim(Canada) Ltd., priority 1995, dated 2002)

Tested on: HSV-1 strain F or KOS
Assay: Inhibition of herpes simplex virus (HSV-1) replication in cell culture (BHK-21 cells, glycoprotein C ELISA)
Format: cell-based
Settings: Human alphaherpesvirus 1, BHK-21; Group 1 Table 1
Description: B) Inhibition of Herpes Simplex Virus (HSV-1) Replication in Cell Culture
Assay: BHK-21 cells clone 13 (ATCC CCL10) were incubated for two days in 850 cm^2 roller bottles (2×10^7 cells/bottle) with α-MEM medium (Gibco Canada Inc., Burlington, Ontario, Canada) supplemented with 8% (v/v) fetal bovine serum (FBS, Gibco Canada, Inc.). The cells were trypsinized and then 3,000 cells in 100 μL of fresh medium were transferred into each well of a 96-well microtiter plate. The cells were incubated at 37° for a period of 3 days to reach a density of 50,000 cells per well. The cells were washed twice with 100 μL of α-MEM supplemented with 2% heat inactivated FBS and incubated for 1-2 hours in 100 μL of the same medium.
Thereafter, the cells were infected with HSV-1 strain F or KOS (multiplicity of infection=0.05 PFU/cell) in 50 μL of α-MEM supplemented with 2% heat inactivated FBS. Following one hour of virus absorption at 37°, the medium was removed and the cells were washed with α-MEM supplemented with 2% heat inactivated FBS (2×100 μL). The cells were incubated with or without 100 μL of the appropriate concentration of test reagent in α-MEM medium supplemented with 2% heat inactivated FBS. After 24 hours of incubation at 37°, the extent of viral replication was determined by an ELISA assay; for instance, the following assay that detects the late glycoprotein C of HSV-1.
Cells were fixed in the microtiter plate with 100 μL of 0.063% glutaraldehyde in phosphate buffered saline for 30 min at room temperature. The microtiter plate was then washed once with casein blocking solution and blocked with 200 μL of the same solution for one hour at room temperature. Thereafter, 100 μL of mAb C11 recognizing the glycoprotein C of HSV-1 (see E. Trybala et al., Journal of General Virology, 1994, 75, 743) was added to each well for two hours at room temperature. The plate was washed three times with phosphate buffered saline containing 0.05% polyoxyethylene (20) sorbitan monooleate. The cells were incubated with 100 μL of sheep anti-mouse IgG horseradish peroxidase for one hour at room temperature in the dark.
The plate was washed three times with 200 μL of the above-noted phosphate buffer saline preparation, and then once with 0.1 M sodium citrate (pH 4.5). Thereafter, 100 μL of orthophenylenediamine dihydrochloride (OPD, Gibco, Canada Inc.) was added to each well. The plate was agitated on a microplate shaker for 30 min in the dark. Color development was monitored at 450 nm using a microplate spectrophotometer.
SAS was used to calculate % inhibition of viral replication and to generate EC50 values.

`Nc1nc(-c2ccc(NC(=O)CN(CCc3ccccc3)C(=O)c3cccnc3)cc2)cs1` [Example 67] showed an EC50 of 210 nM.
